Columns and labels:
CB1 = biological target: T1, CB1 (Homo sapiens, UniProt P21554); assay: PDSP primary binding, CB1; details: n = 4, read-out: Inhibition (primary binding competition efficacy), CB1
T1 construct: purchased NIMH Psychoactive Drug Screening Program (PDSP)
Procedure: (§1) For experimental details, please refer to the Psychoactive Drug Screening Program (PDSP) web site http://pdsp.med.unc.edu/.
(§2) ^a The default concentration for primary binding experiments is 10 µM (n = 4). ^b Negative inhibition represents a stimulation of binding. ^c BZPR: Benzodiazepine Receptors (rat brain site). ^d DOR: Delta Opioid Receptor; KOR: Kappa Opioid Receptor; MOR: Mu Opioid Receptor. ^e DAT: Dopamine Transporter; NET: Norepinephrine Transporter; SERT: Serotonin Transporter. ^f NMDA: N-methyl-D-aspartate receptor.

GABAA = assay: PDSP primary binding, GABAA; details: 10 µM, n = 4
Procedure: as §1, §2

α1A adrenergic receptor = biological target: T2, α1A adrenergic receptor (Homo sapiens, UniProt P35348); assay: PDSP primary binding, α1A; details: n = 4, read-out: Inhibition (primary binding competition efficacy), α1A
T2 construct: purchased NIMH Psychoactive Drug Screening Program (PDSP)
T2 sequence (P35348 whole entry): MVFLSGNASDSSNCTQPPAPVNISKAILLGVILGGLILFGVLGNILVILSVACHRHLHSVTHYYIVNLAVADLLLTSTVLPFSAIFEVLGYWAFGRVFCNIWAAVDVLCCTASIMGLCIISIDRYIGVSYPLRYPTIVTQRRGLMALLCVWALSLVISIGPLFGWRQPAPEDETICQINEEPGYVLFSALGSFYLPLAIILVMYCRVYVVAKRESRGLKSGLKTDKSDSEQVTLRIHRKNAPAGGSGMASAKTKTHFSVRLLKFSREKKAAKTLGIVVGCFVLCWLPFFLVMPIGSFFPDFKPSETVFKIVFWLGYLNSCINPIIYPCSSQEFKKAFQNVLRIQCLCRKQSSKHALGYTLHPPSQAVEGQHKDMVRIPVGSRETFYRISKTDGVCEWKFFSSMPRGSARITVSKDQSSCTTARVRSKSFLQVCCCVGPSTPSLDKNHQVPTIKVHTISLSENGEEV
Procedure: as §1, §2

[1] = tested on: NMDA: N-methyl-D-aspartate receptor; assay: PDSP primary binding, NMDA; details: 10 µM, n = 4
Procedure: as §1, §2

H1 histamine receptor = biological target: T3, H1 histamine receptor (Homo sapiens, UniProt P35367); assay: PDSP primary binding, H1; details: n = 4, read-out: Inhibition (primary binding competition efficacy), H1
T3 construct: purchased NIMH Psychoactive Drug Screening Program (PDSP)
T3 sequence (P35367 whole entry): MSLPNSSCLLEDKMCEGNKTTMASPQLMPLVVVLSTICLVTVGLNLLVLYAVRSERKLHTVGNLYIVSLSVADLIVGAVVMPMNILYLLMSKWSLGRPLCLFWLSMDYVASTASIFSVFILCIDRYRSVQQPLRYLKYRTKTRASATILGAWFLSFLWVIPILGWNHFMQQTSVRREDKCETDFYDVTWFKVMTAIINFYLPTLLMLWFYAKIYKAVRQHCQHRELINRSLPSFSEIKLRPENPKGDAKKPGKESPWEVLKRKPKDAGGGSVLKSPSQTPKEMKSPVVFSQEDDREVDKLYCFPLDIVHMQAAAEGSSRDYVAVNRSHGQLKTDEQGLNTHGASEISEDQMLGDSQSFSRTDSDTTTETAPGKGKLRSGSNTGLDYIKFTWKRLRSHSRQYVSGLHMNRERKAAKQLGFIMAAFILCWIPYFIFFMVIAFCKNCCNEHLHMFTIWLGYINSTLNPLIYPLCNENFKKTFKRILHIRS
Procedure: as §1, §2

[2] = Metabolic stability, liver microsomes, human; format: in vitro ADME; details: 1.0E-06 M, 1 h
mGluR5 = assay: PDSP primary binding, mGluR5; details: 10 µM, n = 4
Procedure: as §1, §2

[3] = parameters: method as in Yuan et al. [2013]; details: ref Yuan et al. [2013]; cited from earlier work
5-HT4 = biological target: T4, 5-HT4 (Homo sapiens, UniProt Q13639); assay: PDSP primary binding, 5-HT4; details: n = 4, read-out: Inhibition (primary binding competition efficacy), 5-HT4
T4 construct: purchased NIMH Psychoactive Drug Screening Program (PDSP)
Procedure: as §1, §2

5-HT2C = biological target: T5, 5-HT2C (Homo sapiens, UniProt P28335); assay: PDSP primary binding, 5-HT2C; details: n = 4, read-out: Inhibition (primary binding competition efficacy), 5-HT2C
T5 construct: purchased NIMH Psychoactive Drug Screening Program (PDSP)
T5 sequence (P28335 33-458): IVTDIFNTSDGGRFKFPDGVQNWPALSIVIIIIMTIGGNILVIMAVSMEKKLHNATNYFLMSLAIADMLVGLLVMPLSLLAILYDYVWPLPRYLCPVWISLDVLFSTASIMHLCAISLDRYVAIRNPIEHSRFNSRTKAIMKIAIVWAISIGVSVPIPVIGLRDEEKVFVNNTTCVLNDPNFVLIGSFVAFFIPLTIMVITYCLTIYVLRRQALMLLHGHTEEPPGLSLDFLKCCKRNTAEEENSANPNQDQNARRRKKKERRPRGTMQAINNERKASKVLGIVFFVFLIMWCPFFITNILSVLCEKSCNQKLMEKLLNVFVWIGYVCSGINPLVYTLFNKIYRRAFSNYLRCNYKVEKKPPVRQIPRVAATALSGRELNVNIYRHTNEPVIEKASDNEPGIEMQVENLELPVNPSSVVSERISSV
Procedure: as §1, §2

human α7-nAChR = biological target: T6, human α7-nAChR (Homo sapiens, UniProt P36544); assay: Two-electrode voltage-clamp recording in Xenopus oocytes, α7; format: cell-based
T6 construct: expressed in transfected cells; host or cells: Xenopus oocytes (cRNA injection)
T6 sequence (P36544 23-502): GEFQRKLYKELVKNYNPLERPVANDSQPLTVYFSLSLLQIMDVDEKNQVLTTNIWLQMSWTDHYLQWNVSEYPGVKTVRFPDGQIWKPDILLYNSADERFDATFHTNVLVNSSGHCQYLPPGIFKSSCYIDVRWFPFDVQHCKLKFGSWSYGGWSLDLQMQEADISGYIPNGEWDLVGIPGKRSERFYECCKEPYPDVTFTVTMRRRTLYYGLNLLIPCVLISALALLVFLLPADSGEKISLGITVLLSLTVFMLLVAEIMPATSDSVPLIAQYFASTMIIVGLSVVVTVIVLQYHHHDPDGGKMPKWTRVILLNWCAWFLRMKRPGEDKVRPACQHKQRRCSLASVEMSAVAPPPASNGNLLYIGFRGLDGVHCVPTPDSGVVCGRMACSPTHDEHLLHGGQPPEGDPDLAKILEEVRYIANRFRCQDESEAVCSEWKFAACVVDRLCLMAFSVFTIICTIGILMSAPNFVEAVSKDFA
Procedure: Xenopus oocytes were injected with cRNAs encoding human nicotinic receptor subunits (α4:β2 at 1:1 ratio or α7). Three to five days after injection, oocytes were individually placed in a custom made small volume chamber and continuously perfused with oocyte Ringer's solution (OR2; 92.5 mmol/L NaCl, 2.5 mmol/L KCl, 1 mmol/L CaCl2, 1 mmol/L MgCl2, and 5 mmol/L HEPES at pH 7.5). Drugs were delivered to the oocytes through a ValveLink8.2 computer-controlled perfusion system (Automate Scientific, Inc, Berkeley, CA). The chamber was grounded through an agar KCl bridge. The oocytes were voltage-clamped at −70 mV to measure agonist-induced currents using a GeneClamp 500B amplifier (Axon Instruments, Foster City, CA). The current signal was filtered at 20 Hz with the built-in four pole low-pass Bessel filter and digitized at 100 Hz.

D5 dopamine receptor = biological target: T7, D5 dopamine receptor (Homo sapiens, UniProt P21918); assay: PDSP primary binding, D5; details: n = 4, read-out: Inhibition (primary binding competition efficacy), D5
T7 construct: purchased NIMH Psychoactive Drug Screening Program (PDSP)
T7 sequence (P21918 whole entry): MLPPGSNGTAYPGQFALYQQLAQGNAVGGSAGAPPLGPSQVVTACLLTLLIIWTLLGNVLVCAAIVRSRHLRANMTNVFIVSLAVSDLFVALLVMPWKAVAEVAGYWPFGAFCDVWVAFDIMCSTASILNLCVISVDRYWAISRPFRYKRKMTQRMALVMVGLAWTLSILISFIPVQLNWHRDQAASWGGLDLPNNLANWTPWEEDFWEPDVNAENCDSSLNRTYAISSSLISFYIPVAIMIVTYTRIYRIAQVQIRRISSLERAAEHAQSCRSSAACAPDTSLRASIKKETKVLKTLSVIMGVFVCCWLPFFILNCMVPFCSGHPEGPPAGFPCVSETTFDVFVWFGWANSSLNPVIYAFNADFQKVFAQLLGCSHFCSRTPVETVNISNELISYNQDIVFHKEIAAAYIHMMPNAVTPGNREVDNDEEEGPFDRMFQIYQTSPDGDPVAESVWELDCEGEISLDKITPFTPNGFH
Procedure: as §1, §2

σ 2 sigma receptor = assay: PDSP primary binding, σ 2; details: 10 µM, n = 4
Procedure: as §1, §2

α7 nAChR = details: ref Yu et al. [2012], cited from earlier work
α2B adrenergic receptor = biological target: T8, α2B adrenergic receptor (Homo sapiens, UniProt P18089); assay: PDSP primary binding, α2B; details: n = 4, read-out: Inhibition (primary binding competition efficacy), α2B
T8 construct: purchased NIMH Psychoactive Drug Screening Program (PDSP)
T8 sequence (P18089 whole entry): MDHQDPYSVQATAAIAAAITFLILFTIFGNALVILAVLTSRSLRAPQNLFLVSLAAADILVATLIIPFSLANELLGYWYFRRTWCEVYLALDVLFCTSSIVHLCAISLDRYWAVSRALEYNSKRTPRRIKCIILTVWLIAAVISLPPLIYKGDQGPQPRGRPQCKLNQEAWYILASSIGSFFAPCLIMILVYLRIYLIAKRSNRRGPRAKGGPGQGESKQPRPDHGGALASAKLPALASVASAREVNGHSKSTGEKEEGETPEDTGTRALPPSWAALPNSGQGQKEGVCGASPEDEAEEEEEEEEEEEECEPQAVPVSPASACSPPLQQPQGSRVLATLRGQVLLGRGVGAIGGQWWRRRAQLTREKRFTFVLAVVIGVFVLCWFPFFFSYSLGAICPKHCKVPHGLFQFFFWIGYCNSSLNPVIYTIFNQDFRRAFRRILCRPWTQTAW
Procedure: as §1, §2

D3 dopamine receptor = biological target: T9, D3 dopamine receptor (Homo sapiens, UniProt P35462); assay: PDSP primary binding, D3; details: n = 4, read-out: Inhibition (primary binding competition efficacy), D3
T9 construct: purchased NIMH Psychoactive Drug Screening Program (PDSP)
T9 sequence (P35462 whole entry): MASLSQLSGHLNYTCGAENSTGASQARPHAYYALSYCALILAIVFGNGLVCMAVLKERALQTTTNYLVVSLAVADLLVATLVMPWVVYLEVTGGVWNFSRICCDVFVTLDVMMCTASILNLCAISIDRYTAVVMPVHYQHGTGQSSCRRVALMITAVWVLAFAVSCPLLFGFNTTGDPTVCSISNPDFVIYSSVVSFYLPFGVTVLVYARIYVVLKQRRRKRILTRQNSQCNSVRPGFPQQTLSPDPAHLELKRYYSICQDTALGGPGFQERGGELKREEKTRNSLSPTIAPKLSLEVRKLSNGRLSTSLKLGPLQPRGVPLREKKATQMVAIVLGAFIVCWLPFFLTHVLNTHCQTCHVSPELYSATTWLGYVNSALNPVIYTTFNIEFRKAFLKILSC
Procedure: as §1, §2

[4] = Plasma and brain levels after NSF (UHPLC-MS-MS); format: in vivo, mouse
Procedure: The chamber floor is covered with bedding (∼0.5″). […] Samples are stored at −80°C until analysis.
Compound LF-3-99 (10 ng/mL, See Fig. S1 for structure) was used as an internal standard.

[5] = Bacterial cytotoxicity, strain TA98; format: cell-based; details: Salmonella typhimurium, bacterial tester strain TA98 without S9, read-out: Cytotoxicity (% of Control Values)
Text: Supplement prp20002-e00026-sd1.doc, table 4: Table 4.

[6] = Metabolic stability, cryopreserved hepatocytes, human; format: in vitro ADME; details: 1.0E-06 M, 2 h
α1D adrenergic receptor = biological target: T10, α1D adrenergic receptor (Homo sapiens, UniProt P25100); assay: PDSP primary binding, α1D; details: n = 4, read-out: Inhibition (primary binding competition efficacy), α1D
T10 construct: purchased NIMH Psychoactive Drug Screening Program (PDSP)
T10 sequence (P25100 whole entry): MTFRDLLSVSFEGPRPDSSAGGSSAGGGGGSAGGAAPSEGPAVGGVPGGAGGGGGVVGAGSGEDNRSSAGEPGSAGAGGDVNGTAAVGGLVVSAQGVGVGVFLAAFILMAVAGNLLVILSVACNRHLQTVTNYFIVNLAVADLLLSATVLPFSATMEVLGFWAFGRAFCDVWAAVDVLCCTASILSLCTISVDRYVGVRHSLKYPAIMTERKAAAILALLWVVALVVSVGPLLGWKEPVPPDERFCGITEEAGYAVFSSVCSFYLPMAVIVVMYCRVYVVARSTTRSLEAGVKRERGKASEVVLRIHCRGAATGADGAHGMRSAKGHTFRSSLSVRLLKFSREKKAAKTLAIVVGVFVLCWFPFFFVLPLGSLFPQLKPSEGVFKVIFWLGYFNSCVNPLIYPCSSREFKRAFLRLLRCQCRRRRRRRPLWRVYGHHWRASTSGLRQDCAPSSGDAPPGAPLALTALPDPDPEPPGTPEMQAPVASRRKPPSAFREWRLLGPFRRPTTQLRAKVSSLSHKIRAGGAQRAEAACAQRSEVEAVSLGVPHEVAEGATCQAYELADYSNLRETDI
Procedure: as §1, §2

CYP3A = CYP3A inhibition, HLM, midazolam substrate; format: in vitro ADME, human; details: 1.0E-05 M
Text: Supplement prp20002-e00026-sd1.doc, table 3: Table 3.

5-HT7 = biological target: T11, 5-HT7 (Homo sapiens, UniProt P34969); assay: PDSP primary binding, 5-HT7; details: n = 4, read-out: Inhibition (primary binding competition efficacy), 5-HT7
T11 construct: purchased NIMH Psychoactive Drug Screening Program (PDSP)
T11 sequence (P34969 whole entry): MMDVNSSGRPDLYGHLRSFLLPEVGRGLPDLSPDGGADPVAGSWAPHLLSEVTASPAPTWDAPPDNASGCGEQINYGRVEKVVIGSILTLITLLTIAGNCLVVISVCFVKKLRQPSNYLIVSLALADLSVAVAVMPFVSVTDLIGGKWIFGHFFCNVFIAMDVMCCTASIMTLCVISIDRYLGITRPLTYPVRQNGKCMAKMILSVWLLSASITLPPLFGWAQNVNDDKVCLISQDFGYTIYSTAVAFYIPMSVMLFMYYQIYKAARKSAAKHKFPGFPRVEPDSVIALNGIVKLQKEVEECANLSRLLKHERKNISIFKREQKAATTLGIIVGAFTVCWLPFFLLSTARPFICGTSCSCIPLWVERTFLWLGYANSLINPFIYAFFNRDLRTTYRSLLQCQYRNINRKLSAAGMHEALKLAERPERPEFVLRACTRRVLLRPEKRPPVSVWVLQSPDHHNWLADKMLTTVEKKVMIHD
Procedure: as §1, §2

MOR: Mu Opioid Receptor = biological target: T12, MOR: Mu Opioid Receptor (Homo sapiens, UniProt P35372); assay: PDSP primary binding, MOR; details: n = 4, read-out: Inhibition (primary binding competition efficacy), MOR
T12 construct: purchased NIMH Psychoactive Drug Screening Program (PDSP)
T12 sequence (P35372 whole entry): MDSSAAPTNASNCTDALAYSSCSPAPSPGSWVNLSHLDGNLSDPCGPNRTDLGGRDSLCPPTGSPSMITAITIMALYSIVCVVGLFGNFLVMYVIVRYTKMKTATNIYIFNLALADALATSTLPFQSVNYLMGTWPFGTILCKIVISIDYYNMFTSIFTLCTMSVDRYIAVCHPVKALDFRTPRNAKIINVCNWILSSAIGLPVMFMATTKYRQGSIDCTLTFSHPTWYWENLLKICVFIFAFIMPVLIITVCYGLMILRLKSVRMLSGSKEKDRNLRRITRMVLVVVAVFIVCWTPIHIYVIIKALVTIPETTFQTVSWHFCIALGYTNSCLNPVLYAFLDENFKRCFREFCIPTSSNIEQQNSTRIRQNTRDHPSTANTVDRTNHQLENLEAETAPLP
Procedure: as §1, §2

[7] = tested on: five different cytochrome P450 (CYP450) enzymes (2D6, 3A, 1A, 2C9, and 2C19); assay: CYP450 inhibition panel (summary); format: in vitro ADME, human; details: in words
[8] = 5 mg/kg p.o., day 29, about 50-60 min after pretreatment

**Q.** Which results are given for `OCCc1cc(-c2cncc(OC[C@@H]3CCN3)c2)on1` [LF-3-88, 2-[5-[5-(2(S)-azetidinylmethoxyl)-3-pyridyl]-3-isoxazolyl]ethanol]?
**A.** inhibition at 10 µM (CB1): 5.1%; Inhibition (primary binding competition efficacy), GABAA (GABAA): -7.6%; inhibition at 10 µM (α1A adrenergic receptor): -5.5%; Inhibition (primary binding competition efficacy), NMDA [1]: -4.7%; inhibition at 10 µM (H1 histamine receptor): -6%; Remaining (metabolic stability) [2]: 89%; Inhibition (primary binding competition efficacy), mGluR5 (mGluR5): 6.6%; absorption and blood-brain barrier crossing in vivo [3]: absorbed rapidly and crossed the blood–brain barrier; inhibition at 10 µM (5-HT4): 3.7%; inhibition at 10 µM (5-HT2C): 22.7%; agonist activity at α7-nAChRs in oocytes (human α7-nAChR; 20 μmol/L): lack of agonist activity; effect at α7-nAChRs in oocytes (human α7-nAChR; concentrations as high as 20 μmol/L): No effect; antagonist activity at α7-nAChR in oocytes (human α7-nAChR; responses to 100 μmol/L ACh): weak if any antagonist activity; inhibition at 10 µM (D5 dopamine receptor): 5.8%; Inhibition (primary binding competition efficacy), σ 2 (σ 2 sigma receptor): 11.5%; Ki α7 (α7 nAChR; class symbol): NA ^4 (NA: not active, defined as < 50% binding in the primary assay at 10 μmol/L); Ki (α7 nAChR; read-out: Ki α7-nAChRs): > 10 µM; inhibition at 10 µM (α2B adrenergic receptor): -17.7%; inhibition at 10 µM (D3 dopamine receptor): 3%; Plasma level [4, 8]: 430 ± 172 ng/mL; brain level [4, 8]: 14 ± 4 ng/g; Plasma level ([4]; 10 mg/kg p.o., day 29): 942 ± 400 ng/mL; brain level ([4]; 10 mg/kg p.o., day 29): 31 ± 11 ng/g; viability at 0.0001 M ([5]; strain TA98 – S9, 1.0E-04 M): 108%; viability at 10 µM ([5]; strain TA98 – S9, 1.0E-05 M): 92%; viability at 1.25 µM ([5]; strain TA98 – S9, 1.25E-06 M): 95%; viability at 25 µM ([5]; strain TA98 – S9, 2.5E-05 M): 94%; viability at 2.5 µM ([5]; strain TA98 – S9, 2.5E-06 M): 98%; viability at 50 µM ([5]; strain TA98 – S9, 5.0E-05 M): 102%; viability at 5 µM ([5]; strain TA98 – S9, 5.0E-06 M): 96%; viability at 625 nM ([5]; strain TA98 – S9, 6.25E-07 M): 97%; Remaining (metabolic stability) [6]: 92%; inhibition at 10 µM (α1D adrenergic receptor): -3.4%; CYP3A Inhibition (CYP3A): 1%; inhibition at 10 µM (5-HT7): 1.1%; inhibition at 10 µM (MOR: Mu Opioid Receptor): 5.7%; inhibition toward five CYP450 enzymes [7]: No significant inhibition

Source: article PMC4184702 (Pharmacology Research & Perspectives, 2014)
